Measured values from patent US9944603B2, “Compounds and methods for the treatment of cystic fibrosis” (Flatley Discovery Lab, LLC, priority 2013, dated 2018).

Target: T1, human F508del CFTR (Homo sapiens, UniProt P13569, DEL508-508)
T1 construct: expressed in transfected cells
Assay: CFTR-YFP Assay, CFTR Corrector Protocol (YFP flux assay)
Assay type: cell-based
Settings: for Emax: normalized to the positive control, read-out: EMAX (% Efficacy, EMAX normalized to the positive control)

T1 sequence (P13569 with tags, fused parts or gaps DEL508-508): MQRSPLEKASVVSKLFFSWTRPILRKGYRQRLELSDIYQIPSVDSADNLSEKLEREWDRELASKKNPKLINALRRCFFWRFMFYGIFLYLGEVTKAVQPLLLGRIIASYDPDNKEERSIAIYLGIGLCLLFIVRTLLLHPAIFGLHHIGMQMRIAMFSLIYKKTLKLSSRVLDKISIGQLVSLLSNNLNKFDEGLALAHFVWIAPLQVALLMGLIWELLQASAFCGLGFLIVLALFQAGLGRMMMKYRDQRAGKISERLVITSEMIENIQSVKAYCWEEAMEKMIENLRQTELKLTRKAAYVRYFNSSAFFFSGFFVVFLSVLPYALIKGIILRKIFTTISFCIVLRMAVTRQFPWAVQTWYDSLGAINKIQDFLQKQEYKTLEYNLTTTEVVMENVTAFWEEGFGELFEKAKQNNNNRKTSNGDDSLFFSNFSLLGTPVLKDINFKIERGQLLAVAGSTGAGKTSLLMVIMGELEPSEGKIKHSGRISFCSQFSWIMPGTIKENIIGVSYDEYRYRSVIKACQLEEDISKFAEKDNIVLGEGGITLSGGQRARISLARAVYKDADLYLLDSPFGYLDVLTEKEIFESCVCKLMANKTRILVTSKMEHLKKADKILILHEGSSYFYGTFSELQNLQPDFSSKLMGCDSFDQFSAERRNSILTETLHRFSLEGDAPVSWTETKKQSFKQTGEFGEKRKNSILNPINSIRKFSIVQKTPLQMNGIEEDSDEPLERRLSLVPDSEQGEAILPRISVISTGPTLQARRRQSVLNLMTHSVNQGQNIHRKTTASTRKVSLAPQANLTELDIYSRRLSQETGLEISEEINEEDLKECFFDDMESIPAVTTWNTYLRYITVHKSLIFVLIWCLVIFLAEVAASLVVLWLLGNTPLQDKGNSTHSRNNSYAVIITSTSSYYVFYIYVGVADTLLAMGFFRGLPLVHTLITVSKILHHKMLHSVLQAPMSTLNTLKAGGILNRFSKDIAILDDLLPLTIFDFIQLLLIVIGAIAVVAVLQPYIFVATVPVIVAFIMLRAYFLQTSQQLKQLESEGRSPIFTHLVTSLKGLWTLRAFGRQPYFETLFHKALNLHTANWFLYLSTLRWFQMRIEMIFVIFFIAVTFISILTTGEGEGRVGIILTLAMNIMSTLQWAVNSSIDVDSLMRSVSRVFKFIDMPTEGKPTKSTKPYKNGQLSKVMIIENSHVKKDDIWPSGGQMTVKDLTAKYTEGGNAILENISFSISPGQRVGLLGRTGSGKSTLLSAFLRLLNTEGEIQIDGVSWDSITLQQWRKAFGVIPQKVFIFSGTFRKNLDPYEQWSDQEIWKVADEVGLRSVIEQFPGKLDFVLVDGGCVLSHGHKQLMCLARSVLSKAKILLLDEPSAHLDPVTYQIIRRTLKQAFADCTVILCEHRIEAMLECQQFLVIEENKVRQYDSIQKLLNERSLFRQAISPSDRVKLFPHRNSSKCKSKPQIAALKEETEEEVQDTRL

COc1ccc(S(=O)(=O)N2CCC(n3c(-c4ccccc4Cl)nc4ccc(C)nc43)CC2)cc1OC [Example 85]
EC50: > 20 µM
Emax: 10 to 30%

O=S(=O)(c1ccc2snc(Cl)c2c1)N1CCC(n2c(-c3ccncc3F)nc3cccnc32)CC1 [Example 158]
EC50: 10 to 20 µM
Emax: 10 to 30%

COc1ccc2c(c1)nc(-c1ccncc1F)n2C1CCN(S(=O)(=O)c2ccc3c(c2)OC(F)(F)O3)CC1 [Example 150]
EC50: 10 to 20 µM
Emax: 30 to 80%

COc1ccc(N(C2CCN(S(=O)(=O)c3ccc4nc(C)oc4c3)CC2)S(=O)(=O)c2ccccc2Cl)nc1 [Example 228]
EC50: 10 to 20 µM
Emax: 10 to 30%

CCc1ccc(S(=O)(=O)N2CCC(N(c3ncccn3)S(=O)(=O)c3ccccc3Cl)CC2)cc1 [Example 242]
EC50: < 10 µM
Emax: 10 to 30%

Cc1ccc(S(=O)(=O)N2CCC(n3c(-c4ccccc4)nc4ccc(C)nc43)CC2)cc1 [Example 61]
EC50: < 10 µM
Emax: 30 to 80%

O=S(=O)(c1ccc2c(c1)OC(F)(F)O2)N1CCC(n2c(-c3ccncn3)nc3cccnc32)CC1 [Example 128]
EC50: < 10 µM
Emax: 10 to 30%

COc1ccc2nc(-c3ccncc3F)n(C3CCN(S(=O)(=O)c4ccc5c(c4)OC(F)(F)O5)CC3)c2n1 [Example 127]
EC50: < 10 µM
Emax: 30 to 80%

CCc1ccc(S(=O)(=O)N2CCC(N(c3ccccn3)S(=O)(=O)c3cccc(Cl)c3)CC2)cc1 [Example 234]
EC50: < 10 µM
Emax: 30 to 80%

[2H]C1([2H])Oc2ccc(S(=O)(=O)N3CCC(n4c(-c5ccncc5F)nc5cccnc54)CC3)cc2O1 [Example 136]
EC50: < 10 µM
Emax: 10 to 30%

COc1ccc(S(=O)(=O)N2CCC(n3c(-c4ccccc4OC(C)=O)nc4cccnc43)CC2)cc1Cl [Example 80]
EC50: < 10 µM
Emax: 30 to 80%

Cc1nc2ccc(S(=O)(=O)N3CCC(n4c(-c5ccncc5F)nc5cccnc54)CC3)cc2s1 [Example 132]
EC50: < 10 µM
Emax: 30 to 80%

COc1ccc(S(=O)(=O)N2CCC(N(C(=O)c3ccccc3Cl)c3cccc(C)n3)CC2)cc1Cl [Example 206]
EC50: 10 to 20 µM
Emax: 10 to 30%

O=S(=O)(c1cccc(OC(F)F)c1)N1CCC(n2c(-c3ccncc3Cl)nc3cccnc32)CC1 [Example 94]
EC50: < 10 µM
Emax: 10 to 30%

Cc1ccc(S(=O)(=O)N2CCC(n3c(-c4ccncc4Cl)nc4cccnc43)CC2)cc1C#N [Example 95]
EC50: 10 to 20 µM
Emax: 10 to 30%

O=S(=O)(c1c[nH]cn1)N1CCC(n2c(-c3ccccc3)nc3cccnc32)CC1 [Example 72]
EC50: < 10 µM
Emax: 10 to 30%

CCc1ccc(S(=O)(=O)N2CCC(n3c(-c4ccc(F)cc4F)nc4cccnc43)CC2)cc1 [Example 47]
EC50: < 10 µM
Emax: 30 to 80%

Cc1cc(C)c(S(=O)(=O)N(c2ccccn2)C2CCN(S(=O)(=O)c3ccc4c(c3)OC(F)(F)O4)CC2)c(C)c1 [Example 185]
EC50: < 10 µM
Emax: 30 to 80%

Cc1ccc2nc(-c3ccncn3)n(C3CCN(S(=O)(=O)c4ccc5c(c4)OC(F)(F)O5)CC3)c2n1 [Example 114]
EC50: < 10 µM
Emax: 30 to 80%

Cc1ccc2nc(-c3ccccc3)n(C3CCN(S(=O)(=O)c4ccc5c(c4)OC(F)(F)O5)CC3)c2n1 [Example 97]
EC50: < 10 µM
Emax: 30 to 80%

Cc1ccc(S(=O)(=O)N2CCC(n3c(-c4ccccc4Cl)nc4ccc(C)nc43)CC2)cc1 [Example 65]
EC50: < 10 µM
Emax: 30 to 80%

CCc1ccc(S(=O)(=O)N2CCC(N(c3ccccc3OC)S(=O)(=O)c3ccccc3Cl)CC2)cc1 [Example 239]
EC50: < 10 µM
Emax: 10 to 30%

O=S(=O)(c1ccc2snc(Cl)c2c1)N1CCC(n2c(-c3ccncc3Cl)nc3cccnc32)CC1 [Example 157]
EC50: < 10 µM
Emax: 10 to 30%
